Data taken from US20260216197A1, “WRN HELICASE INHIBITOR” (SUZHOU PUHE BIOPHARMA CO., LTD., priority 2022, published 2026).
Where two headings read alike, the source gives them in different places.

What was measured:
[1] = Caco-2 membrane permeability assay; type: in vitro ADME; conditions: human; Caco-2, apical pH 6.5, basolateral pH 7.4
Method: The membrane permeability of the molecule of the present disclosure was evaluated. Samples were analyzed by LC-MS to estimate the apparent permeability coefficient (Papp) of the compounds across Caco-2 cell monolayers, with the apical chamber at pH 6.5 and the basolateral chamber at pH 7.4. Active efflux transport of compounds can be blocked using inhibitors of P-gp efflux transporter, BCRP, and MRP2 (50 μM quinidine, 30 μM benzbromarone, and 20 μM sulfasalazine). The data were used to determine apparent permeability (Papp).
[formula] • where VA is the volume of the receptor pore (in mL), Area is the surface area of the membrane (0.143 cm^2 for Transwell-96 well permeable scaffolds), and time is the total transport time (in seconds).

[2] = tested on: SW 48 (MSI-H) colorectal cancer cells; test: In vivo pharmacodynamic assay, SW48 xenograft in nude mice; parameters: species or system BALB/c nude mice; conditions: 50 mg/kg, QD, oral
Method: In vivo pharmacodynamic assay in BALB/c nude mice. Details are as follows:
SW 48 (MSI-H) colorectal cancer cells were cultured (L15 medium with 10% fetal bovine serum), and then inoculated into 6-8-week old female BALB/c nude mice (weighing about 20 g), wherein all mice were inoculated subcutaneously. The mice were cultured in an SPF-grade experimental environment, and all mice had free access to commercially certified standard diets. When the average tumor volume of the mice grew to about 150 mm^3, the test compound was orally administered daily. The dosage was as follows: blank group vehicle (10% HP-β-CD aqueous solution, pH-7). The dosage of the administration group was 120 mg/kg, 50 mg/kg, or 20 mg/kg, once a day. The tumor volume was measured with a two-dimensional caliper three times a week, and the animals were weighed every day. […] The tumor volume was calculated using the formula: V=½a*b^2, where a represents the long diameter of the tumor, and b represents the short diameter of the tumor.

[3] = tested on: MSI-H colorectal cancer SW48 cell line; test: 2D anti-proliferative activity, MSI-H SW48 cells (CTG, 5 days); type: cell-based; conditions: for inhibition at 38.15 pM: 0.038146973 nM; for inhibition at 0.000152588 µM: 0.152587891 nM; for inhibition at 0.000610352 µM: 0.610351563 nM; for inhibition at 0.00244141 µM: 2.44140625 nM; for inhibition at 0.00976562 µM: 9.765625 nM; for inhibition at 0.0390625 µM: 39.0625 nM; for inhibition at 0.15625 µM: 156.25 nM; for inhibition at 0.625 µM: 625 nM; for inhibition at […]: 2500 nM; for inhibition at 10 µM: 10000 nM
In short: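 SW48 cells in RPMI 1640/10% FBS were exposed to serially varied compound concentrations for 5 days at 37 °C, 5% CO2. Viability was read as ATP-dependent CellTiter-Glo luminescence after 30 min.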

[4] = tested on: MSS colorectal cancer HT-29 cell line; test: 2D anti-proliferative activity, MSS HT-29 cells (CTG, 5 days); type: cell-based; conditions: Homo sapiens, 120 h
In short: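 HT-29 cells in McCoy's 5A with 10% FBS exposed to compound for 5 days at 37° C, 5% CO2 in 384-well format. Viable cells read as ATP luminescence (CellTiter-Glo) after 30 min.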

WRN helicase = WRN helicase (Homo sapiens, UniProt Q14191); test: WRN helicase hydrolysis/unwinding of double-stranded DNA (fluorescence); type: biochemical
WRN helicase, sequence (Q14191 whole entry): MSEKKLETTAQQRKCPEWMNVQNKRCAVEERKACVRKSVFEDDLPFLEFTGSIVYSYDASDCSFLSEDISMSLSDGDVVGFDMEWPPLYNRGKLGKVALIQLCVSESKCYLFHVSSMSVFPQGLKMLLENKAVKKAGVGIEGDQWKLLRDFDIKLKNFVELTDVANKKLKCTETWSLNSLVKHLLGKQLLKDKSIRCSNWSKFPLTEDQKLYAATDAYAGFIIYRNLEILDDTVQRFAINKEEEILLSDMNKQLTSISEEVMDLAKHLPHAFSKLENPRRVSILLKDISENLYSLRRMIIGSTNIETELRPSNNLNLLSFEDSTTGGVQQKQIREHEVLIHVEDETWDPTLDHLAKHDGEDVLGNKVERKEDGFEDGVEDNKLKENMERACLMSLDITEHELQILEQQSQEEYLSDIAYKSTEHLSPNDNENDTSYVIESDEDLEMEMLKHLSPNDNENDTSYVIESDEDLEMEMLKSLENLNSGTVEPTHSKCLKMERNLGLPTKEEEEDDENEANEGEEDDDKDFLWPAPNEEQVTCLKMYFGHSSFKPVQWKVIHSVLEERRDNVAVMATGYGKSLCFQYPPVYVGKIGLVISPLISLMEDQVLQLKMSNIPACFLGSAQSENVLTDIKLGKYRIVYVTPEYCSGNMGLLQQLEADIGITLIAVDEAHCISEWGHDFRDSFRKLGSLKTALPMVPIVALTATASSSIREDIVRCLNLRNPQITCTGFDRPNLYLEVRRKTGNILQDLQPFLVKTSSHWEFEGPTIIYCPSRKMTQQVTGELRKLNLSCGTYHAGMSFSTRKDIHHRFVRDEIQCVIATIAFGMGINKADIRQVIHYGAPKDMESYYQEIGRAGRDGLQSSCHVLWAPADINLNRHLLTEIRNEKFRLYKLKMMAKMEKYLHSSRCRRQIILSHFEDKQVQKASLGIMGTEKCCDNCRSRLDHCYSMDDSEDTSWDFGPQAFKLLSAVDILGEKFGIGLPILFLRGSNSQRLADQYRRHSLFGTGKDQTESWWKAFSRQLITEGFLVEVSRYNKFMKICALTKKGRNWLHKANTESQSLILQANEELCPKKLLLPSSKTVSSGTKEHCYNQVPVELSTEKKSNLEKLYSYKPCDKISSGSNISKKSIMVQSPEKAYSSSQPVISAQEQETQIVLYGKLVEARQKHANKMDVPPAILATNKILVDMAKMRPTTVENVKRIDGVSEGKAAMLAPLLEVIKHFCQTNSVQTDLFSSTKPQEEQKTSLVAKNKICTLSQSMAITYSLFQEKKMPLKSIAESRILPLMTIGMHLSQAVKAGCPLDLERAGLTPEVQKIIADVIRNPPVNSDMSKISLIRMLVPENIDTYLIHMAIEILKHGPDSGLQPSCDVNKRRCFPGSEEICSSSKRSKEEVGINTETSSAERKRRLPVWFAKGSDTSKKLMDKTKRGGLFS
In short: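 Human WRN helicase preincubated 30 min in the dark with compound (top final concentration 10 μM, 4-fold dilutions). Reaction started with 19-bp double-stranded DNA labelled 3′-TAMRA/5′-BHQ2, run 60 min at room temperature; IC50 from fluorescence change (Ex530/Em590) versus DMSO blank.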

[5] = Homo sapiens, read-out: Average value/ Inhibition rate
[6] = Homo sapiens, read-out: Test 1/ Inhibition rate
[7] = Homo sapiens, read-out: Test 2/ Inhibition rate

CCc1c(N2CCN(C(=O)c3ncnc(C)c3O)CC2)c(=O)n2nc(C3=CCOCC3)nc2n1CC(=O)Nc1ccc(C(F)(F)F)c2ccoc12 [Compound H22]
Papp A→B [1]: 3.2 ×10⁻⁶ cm/s
Papp B→A [1]: 21 ×10⁻⁶ cm/s
TGI [2]: 104%
Tumor volume (mm^3)-D 1 ([2]; day 1): 162 mm^3
Tumor volume (mm^3)-D 21 ([2]; day 21): 89 mm^3
inhibitory activity on SW48 cells ([3]; 39 nM): high inhibitory activity
inhibition at 38.15 pM [3, 5]: -4.19%
inhibition at 38.15 pM [3, 6]: -1.57%
inhibition at 38.15 pM [3, 7]: -6.81%
inhibition at 0.000152588 µM [3, 5]: 0.206%
inhibition at 0.000152588 µM [3, 6]: -0.184%
inhibition at 0.000152588 µM [3, 7]: 0.596%
inhibition at 0.000610352 µM [3, 5]: -2.48%
inhibition at 0.000610352 µM [3, 6]: -1.27%
inhibition at 0.000610352 µM [3, 7]: -3.7%
inhibition at 0.00244141 µM [3, 5]: -0.303%
inhibition at 0.00244141 µM [3, 6]: 2.69%
inhibition at 0.00244141 µM [3, 7]: -3.3%
inhibition at 0.00976562 µM [3, 5]: -6.3%
inhibition at 0.00976562 µM [3, 6]: -5.49%
inhibition at 0.00976562 µM [3, 7]: -7.12%
inhibition at 0.0390625 µM [3, 5]: 29.2%
inhibition at 0.0390625 µM [3, 6]: 28.4%
inhibition at 0.0390625 µM [3, 7]: 30%
inhibition at 0.15625 µM [3, 5]: 98%
inhibition at 0.15625 µM [3, 6]: 98.4%
inhibition at 0.15625 µM [3, 7]: 97.6%
inhibition at 0.625 µM [3, 5]: 98.1%
inhibition at 0.625 µM [3, 6]: 98.3%
inhibition at 0.625 µM [3, 7]: 97.9%
inhibition at […] [3, 5]: 99.6%
inhibition at […] [3, 6]: 99.9%
inhibition at […] [3, 7]: 99.2%
inhibition at 10 µM [3, 5]: 101%
inhibition at 10 µM [3, 6]: 102%
inhibition at 10 µM [3, 7]: 101%
IC50 ([3]; Homo sapiens, 120 h, 5 days): 47 nM
IC50 [4]: > 10000 nM
IC50 (WRN helicase): 1.4 nM
